Active and inactive are the calls of the source.
Columns and labels:
[1] = THP-1 cell cytotoxicity, cytotoxicity control, set 4 (AID 504911); type: functional; conditions: Mycobacterium tuberculosis
[2] = Vero cell cytotoxicity, dose response, cytotoxicity control for M. tuberculosis growth inhibitor project, Vero cells, purified and synthesized compounds, set 4 (AID 504854); type: functional; conditions: Mycobacterium tuberculosis
[3] = Vero cell cytotoxicity, dose response, cytotoxicity control for M. tuberculosis growth inhibitor project, Vero cells, purified and synthesized compounds, set 5 (AID 504909); type: functional; conditions: Mycobacterium tuberculosis
[4] = molecular target: T1, Multidrug resistance protein CDR1 (Candida albicans, UniProt P43071); assay: CaCdr1 efflux pump inhibitor potency, dose response, singleplex, Cherry Pick2 set (AID 623996); type: functional; conditions: read-out: EC50_MICROM
T1 sequence (P43071 whole entry, looked up): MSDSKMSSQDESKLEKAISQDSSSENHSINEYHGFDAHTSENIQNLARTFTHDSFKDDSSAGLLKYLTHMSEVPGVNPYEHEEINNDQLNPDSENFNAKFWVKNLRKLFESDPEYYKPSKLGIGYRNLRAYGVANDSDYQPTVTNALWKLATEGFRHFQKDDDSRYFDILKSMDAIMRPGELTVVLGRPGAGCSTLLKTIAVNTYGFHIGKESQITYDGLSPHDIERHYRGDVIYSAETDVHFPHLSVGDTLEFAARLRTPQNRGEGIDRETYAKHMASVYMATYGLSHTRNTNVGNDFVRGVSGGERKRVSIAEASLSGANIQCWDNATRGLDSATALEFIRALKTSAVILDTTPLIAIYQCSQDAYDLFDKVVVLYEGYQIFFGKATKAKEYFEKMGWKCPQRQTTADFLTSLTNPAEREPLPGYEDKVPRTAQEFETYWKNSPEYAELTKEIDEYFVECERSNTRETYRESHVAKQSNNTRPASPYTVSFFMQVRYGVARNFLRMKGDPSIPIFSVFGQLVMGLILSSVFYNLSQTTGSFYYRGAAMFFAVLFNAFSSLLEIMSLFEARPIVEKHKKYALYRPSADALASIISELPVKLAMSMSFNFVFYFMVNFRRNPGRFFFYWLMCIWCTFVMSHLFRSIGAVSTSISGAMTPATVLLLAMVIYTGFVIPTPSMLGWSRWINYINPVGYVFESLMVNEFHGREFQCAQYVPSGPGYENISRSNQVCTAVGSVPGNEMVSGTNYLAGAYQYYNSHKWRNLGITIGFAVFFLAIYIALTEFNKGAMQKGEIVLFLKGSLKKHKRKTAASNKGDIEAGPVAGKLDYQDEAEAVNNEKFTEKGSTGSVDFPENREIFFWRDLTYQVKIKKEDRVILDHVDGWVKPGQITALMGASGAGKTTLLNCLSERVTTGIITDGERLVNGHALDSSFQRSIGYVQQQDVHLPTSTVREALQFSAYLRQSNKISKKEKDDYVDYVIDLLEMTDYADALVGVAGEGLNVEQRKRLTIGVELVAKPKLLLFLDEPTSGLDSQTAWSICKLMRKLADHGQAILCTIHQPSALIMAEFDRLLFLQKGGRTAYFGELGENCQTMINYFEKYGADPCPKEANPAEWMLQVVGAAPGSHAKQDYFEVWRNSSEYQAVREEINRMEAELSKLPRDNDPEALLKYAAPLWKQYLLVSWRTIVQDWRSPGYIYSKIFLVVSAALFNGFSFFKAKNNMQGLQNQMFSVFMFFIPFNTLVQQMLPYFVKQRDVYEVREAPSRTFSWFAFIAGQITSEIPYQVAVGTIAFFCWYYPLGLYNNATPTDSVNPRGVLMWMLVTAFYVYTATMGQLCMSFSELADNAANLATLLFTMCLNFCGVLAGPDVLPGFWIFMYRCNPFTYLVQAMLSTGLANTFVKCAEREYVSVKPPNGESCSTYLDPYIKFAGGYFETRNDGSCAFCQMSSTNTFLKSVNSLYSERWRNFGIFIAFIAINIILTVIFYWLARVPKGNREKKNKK

[5] = molecular target: T2, Benomyl/methotrexate resistance protein (Candida albicans, UniProt P28873); assay: CaMdr1 efflux pump inhibitor potency, dose response, singleplex, Cherry Pick2 set (AID 623992); type: functional; conditions: read-out: EC50_MICROM
T2 sequence (P28873 whole entry): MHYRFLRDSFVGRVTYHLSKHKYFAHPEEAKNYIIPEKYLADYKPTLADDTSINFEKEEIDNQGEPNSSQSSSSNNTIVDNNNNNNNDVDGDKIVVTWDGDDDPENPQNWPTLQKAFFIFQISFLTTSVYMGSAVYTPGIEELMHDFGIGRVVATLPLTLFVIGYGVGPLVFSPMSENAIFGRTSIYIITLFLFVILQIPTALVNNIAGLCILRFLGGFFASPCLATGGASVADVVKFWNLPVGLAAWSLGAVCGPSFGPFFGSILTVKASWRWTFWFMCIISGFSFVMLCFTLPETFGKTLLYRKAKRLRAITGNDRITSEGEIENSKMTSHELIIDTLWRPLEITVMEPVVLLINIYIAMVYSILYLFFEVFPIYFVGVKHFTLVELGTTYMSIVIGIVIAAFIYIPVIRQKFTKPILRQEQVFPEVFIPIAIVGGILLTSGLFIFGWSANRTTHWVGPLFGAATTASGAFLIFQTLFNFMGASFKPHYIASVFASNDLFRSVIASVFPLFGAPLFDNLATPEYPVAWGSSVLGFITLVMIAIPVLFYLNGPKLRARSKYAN

[6] = molecular target: T1, Multidrug resistance protein CDR1; assay: CaCDR1 efflux pump inhibitors in yeast, dose response, S. cerevisiae AD1-8u, singleplex, Cherry Pick1 hits (AID 588606); type: functional
[7] = molecular target: T2, Benomyl/methotrexate resistance protein; assay: CaMdr1 efflux pump inhibitor potency, dose response, singleplex, Cherry Pick1 hits (AID 588608); type: functional
[8] = molecular target: Glycogen synthase kinase-3 alpha (Homo sapiens, UniProt P49840); assay: human GSK3 alpha kinase inhibition, dose response, selectivity assay for GSK3beta inhibitor project, biochemical, microfluidics, dry powder samples, set 2 (AID 623978); type: functional
Chain of Glycogen synthase kinase-3 alpha (P49840 whole entry): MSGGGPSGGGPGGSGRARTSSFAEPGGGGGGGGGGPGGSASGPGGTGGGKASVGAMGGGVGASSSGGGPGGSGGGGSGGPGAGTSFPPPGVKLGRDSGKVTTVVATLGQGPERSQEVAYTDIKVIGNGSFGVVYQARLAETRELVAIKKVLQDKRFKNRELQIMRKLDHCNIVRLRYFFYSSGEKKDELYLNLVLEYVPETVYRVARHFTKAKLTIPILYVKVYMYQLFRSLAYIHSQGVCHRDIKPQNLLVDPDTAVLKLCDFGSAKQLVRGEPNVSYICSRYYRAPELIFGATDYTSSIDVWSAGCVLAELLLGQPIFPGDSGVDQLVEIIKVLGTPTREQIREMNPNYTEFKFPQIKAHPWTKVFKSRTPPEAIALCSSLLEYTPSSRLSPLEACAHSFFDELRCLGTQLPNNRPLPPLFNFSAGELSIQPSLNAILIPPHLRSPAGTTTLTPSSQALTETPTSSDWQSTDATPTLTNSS

[9] = molecular target: Glycogen synthase kinase-3 beta (Homo sapiens, UniProt P49841); assay: GSK3beta kinase inhibitors, dose response, biochemical, microfluidics, dry powder samples, set 2 (AID 623989); type: functional
Chain of Glycogen synthase kinase-3 beta (P49841 whole entry): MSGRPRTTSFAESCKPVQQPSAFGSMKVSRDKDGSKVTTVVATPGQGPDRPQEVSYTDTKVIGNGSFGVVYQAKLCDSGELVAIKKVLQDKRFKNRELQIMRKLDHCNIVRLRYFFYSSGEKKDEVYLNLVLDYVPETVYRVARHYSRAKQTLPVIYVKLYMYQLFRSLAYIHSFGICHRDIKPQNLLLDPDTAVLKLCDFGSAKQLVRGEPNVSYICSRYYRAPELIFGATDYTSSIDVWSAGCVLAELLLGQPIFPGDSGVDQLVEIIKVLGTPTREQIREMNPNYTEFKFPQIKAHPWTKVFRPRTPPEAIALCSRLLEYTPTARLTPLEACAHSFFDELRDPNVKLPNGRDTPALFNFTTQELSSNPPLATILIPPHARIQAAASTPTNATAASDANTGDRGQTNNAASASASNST

[10] = molecular target: T3, DNA repair protein RAD52 homolog (Homo sapiens, UniProt P43351); type: functional, biochemical
T3 sequence (P43351 whole entry): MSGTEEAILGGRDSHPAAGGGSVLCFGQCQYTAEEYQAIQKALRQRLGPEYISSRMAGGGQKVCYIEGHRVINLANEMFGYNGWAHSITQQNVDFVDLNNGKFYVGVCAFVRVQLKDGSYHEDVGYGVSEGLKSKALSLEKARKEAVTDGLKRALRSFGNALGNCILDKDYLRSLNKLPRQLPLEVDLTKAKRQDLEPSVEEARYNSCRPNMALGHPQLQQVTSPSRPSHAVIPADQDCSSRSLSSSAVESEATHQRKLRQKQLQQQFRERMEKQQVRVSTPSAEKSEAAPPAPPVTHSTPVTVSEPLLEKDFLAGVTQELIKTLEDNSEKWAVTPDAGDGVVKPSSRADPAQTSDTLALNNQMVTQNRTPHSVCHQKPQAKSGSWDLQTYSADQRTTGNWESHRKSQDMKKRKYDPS

[11] = molecular target: Cyclin-dependent kinase 5/CDK5 activator 1 (Homo sapiens, UniProt Q00535); assay: CDK5-p25 kinase inhibition, dose response, selectivity assay for GSK3beta inhibitor project, biochemical, microfluidic mobility shift, dry powder, set 2 (AID 623979); type: functional
Chain of Cyclin-dependent kinase 5/CDK5 activator 1 (Q00535 whole entry): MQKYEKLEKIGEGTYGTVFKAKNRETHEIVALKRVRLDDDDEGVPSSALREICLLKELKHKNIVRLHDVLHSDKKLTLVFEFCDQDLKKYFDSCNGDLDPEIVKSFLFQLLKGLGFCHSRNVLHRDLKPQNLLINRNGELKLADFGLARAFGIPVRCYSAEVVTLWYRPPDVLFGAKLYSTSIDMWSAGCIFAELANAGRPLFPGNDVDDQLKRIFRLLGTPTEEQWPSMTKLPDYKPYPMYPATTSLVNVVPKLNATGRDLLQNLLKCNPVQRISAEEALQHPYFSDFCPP
Chain of Cyclin-dependent kinase 5/CDK5 activator 1 (Q15078 whole entry, further chain): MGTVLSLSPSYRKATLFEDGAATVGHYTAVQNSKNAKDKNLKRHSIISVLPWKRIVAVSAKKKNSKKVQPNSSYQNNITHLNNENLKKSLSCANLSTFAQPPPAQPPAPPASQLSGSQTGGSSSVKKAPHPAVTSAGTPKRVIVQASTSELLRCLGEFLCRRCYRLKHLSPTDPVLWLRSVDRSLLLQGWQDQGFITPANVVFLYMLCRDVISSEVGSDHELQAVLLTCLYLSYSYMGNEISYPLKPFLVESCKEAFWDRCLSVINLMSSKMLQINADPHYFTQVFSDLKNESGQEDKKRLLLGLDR

[12] = molecular target: DNA dC->dU-editing enzyme APOBEC-3G (Homo sapiens, UniProt Q9HC16); assay: SAR analysis of small molecule inhibitors of APOBEC3G DNA Deaminase via a fluorescence-based single-stranded DNA deaminase assay - Set 2.; type: functional; conditions: read-out: IC50_Mean
Chain of DNA dC->dU-editing enzyme APOBEC-3G (Q9HC16 whole entry): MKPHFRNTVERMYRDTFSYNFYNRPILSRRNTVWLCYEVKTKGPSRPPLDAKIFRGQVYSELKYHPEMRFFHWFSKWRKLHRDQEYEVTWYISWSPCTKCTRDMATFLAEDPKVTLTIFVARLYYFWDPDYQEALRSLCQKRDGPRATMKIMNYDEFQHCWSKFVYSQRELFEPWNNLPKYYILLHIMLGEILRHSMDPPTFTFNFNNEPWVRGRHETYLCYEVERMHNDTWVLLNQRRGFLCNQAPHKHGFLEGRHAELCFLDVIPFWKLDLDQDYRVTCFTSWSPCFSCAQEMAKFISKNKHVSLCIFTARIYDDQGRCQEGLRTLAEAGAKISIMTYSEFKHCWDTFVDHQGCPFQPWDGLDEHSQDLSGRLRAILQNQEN

[13] = molecular target: DNA dC->dU-editing enzyme APOBEC-3A (Homo sapiens, UniProt P31941); assay: SAR analysis of small molecule inhibitors of APOBEC3A DNA Deaminase via a fluorescence-based single-stranded DNA deaminase assay - Set 2.; type: functional; conditions: read-out: IC50_Mean
Chain of DNA dC->dU-editing enzyme APOBEC-3A (P31941 whole entry): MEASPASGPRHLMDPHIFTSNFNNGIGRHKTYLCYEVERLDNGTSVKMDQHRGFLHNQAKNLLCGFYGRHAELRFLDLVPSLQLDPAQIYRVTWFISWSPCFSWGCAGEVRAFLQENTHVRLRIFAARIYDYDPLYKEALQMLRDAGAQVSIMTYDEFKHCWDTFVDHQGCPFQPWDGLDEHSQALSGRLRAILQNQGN

[14] = molecular target: Melanin-concentrating hormone receptor 1 (Homo sapiens, UniProt Q99705); assay: Late-stage fluorescence-based counterscreen for antagonists of the G-protein coupled receptor 7 (GPR7): cell-based dose response assay to identify antagonists of the melanin-concentrating hormone receptor 1 (MCHR1) Set 6.; type: functional
Chain of Melanin-concentrating hormone receptor 1 (Q99705 whole entry): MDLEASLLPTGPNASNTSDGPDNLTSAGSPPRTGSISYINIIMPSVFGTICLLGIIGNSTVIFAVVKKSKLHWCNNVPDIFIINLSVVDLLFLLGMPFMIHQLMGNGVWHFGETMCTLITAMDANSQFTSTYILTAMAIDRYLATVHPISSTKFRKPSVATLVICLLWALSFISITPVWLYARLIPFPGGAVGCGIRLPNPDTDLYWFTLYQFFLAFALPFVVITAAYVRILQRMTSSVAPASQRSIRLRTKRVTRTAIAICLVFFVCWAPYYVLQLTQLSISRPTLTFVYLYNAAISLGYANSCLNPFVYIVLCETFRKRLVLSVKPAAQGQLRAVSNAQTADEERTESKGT

[15] = molecular target: Neuropeptides B/W receptor type 1 (Homo sapiens, UniProt P48145); assay: GPR7 antagonist potency, late-stage follow-up, cell-based, fluorescence, dose response, set 6 (AID 588583); type: functional
Chain of Neuropeptides B/W receptor type 1 (P48145 whole entry): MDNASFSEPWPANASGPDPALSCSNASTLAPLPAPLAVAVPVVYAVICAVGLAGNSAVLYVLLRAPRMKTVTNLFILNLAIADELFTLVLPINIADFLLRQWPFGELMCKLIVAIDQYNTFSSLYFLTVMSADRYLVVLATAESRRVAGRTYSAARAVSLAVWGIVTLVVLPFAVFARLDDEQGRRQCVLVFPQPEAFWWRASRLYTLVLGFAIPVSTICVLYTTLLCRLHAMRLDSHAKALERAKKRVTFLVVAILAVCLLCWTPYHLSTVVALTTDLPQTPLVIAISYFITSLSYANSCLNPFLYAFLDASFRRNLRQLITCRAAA

With `Oc1nc(SCc2ccccc2Cl)nc2c1CCCC2` the CC50 [1] was > 100 µM (active), the CC50 [2] was > 100 µM (active) and the CC50 [3] was > 100 µM (active).

For `Cc1noc(C)c1C(=O)N1CCC2(CC1)Oc1ccc(F)cc1C(=O)C21CC(c2ccc(Cl)cc2)=NO1` (stereo not given), the EC50 [4] was 26.8 µM (active), the EC50 [5] was 16.9 µM (active) and the EC50 [6] was 11.5 µM (active). The EC50 [7] was 15.6 µM (active).

For `COc1cccc(/C=C2/Sc3ccc(C(=O)NCCCN4CCCC4)cc3NC2=O)c1`, the AC50 [8] was 38.9 µM (active), the AC50 [9] was 4.46 µM (active) and the AC50 [10] was 4.47 µM (active). The AC50 [11] was 7.91 µM (active).

In the case of `CCc1nc2sc3c(c2c2nnc(SC)n12)CCCC3`, the IC50 [12] is reported as > 99 µM (inactive) and the IC50 [13] is reported as > 99 µM (inactive).

With `O=c1c(-c2ccc(F)cc2)c(Br)cnn1Cc1cccc2ccccc12` the IC50 [14] was 2.24 µM (active) and the IC50 [15] was 2.24 µM (active).
